Where two headings read alike, the source gives them in different places.
Tests used:
[1] = test system: HBV; assay: Efficacy of HBV RNAi agents in HepG2.2.15 cells in vitro (sAg KD); format: cell-based, Hepatitis B Virus; details: for Max % KD, EXPERIMENT 1 / Max % KD, EXPERIMENT 2: percent knockdown; for Percent sAg remaining at maximum knockdown: percent residual gene activity
Protocol: Table 9. Efficacy of HBV RNAi agents.
The efficacy of various HBV RNAi agents was tested in HepG2.2.15 cells in vitro. 10 μM was used. […] It is noted that, due to the nature of the HepG2.2.15 cell line, it is difficult to achieve greater than 50% knockdown.

[2] = test system: FVII (Factor VII); assay: RNA interference against FVII by 19-mer siRNAs with 3′ end caps (FIG. 2); set-up: species or system mouse; details: mF7-III 19-mer blunt-ended, A12S17
[3] = Serum stability of siRNAs with 3′ end caps in mouse serum; format: in vitro ADME; details: 100% mouse serum; 37° C.; up to 24 h; gel, SYBR gold
[4] = Serum stability of siRNAs with 3′ end caps in human serum; format: in vitro ADME; details: 100% human serum; 37° C.; up to 24 h; gel, SYBR gold
[5] = Experiment 2, HepG2.2.15 cells, nM printed only at the Experiment 1 and AVERAGE EC50 heads, read-out: EC50, EXPERIMENT 2
[6] = HepG2.2.15 cells in vitro, Experiment 1, read-out: EC50 (nM), EXPERIMENT 1
[7] = average of Experiments 1 and 2, read-out: EC50 (nM), AVERAGE

Row | Compound | Max % KD, EXPERIMENT 1 ([1]; Experiment 1, HepG2.2.15 cells) [%] | Percent sAg remaining at maximum knockdown ([1]; Experiment 1, HepG2.2.15 cells) [%] | EC50 [1, 5] [nM] | Max % KD, EXPERIMENT 2 ([1]; Experiment 2, HepG2.2.15 cells) [%] | Percent sAg remaining at maximum knockdown ([1]; Experiment 2, HepG2.2.15 cells) [%] | EC50 [1, 6] [nM] | Max % KD, AVERAGE ([1]; average of Experiments 1 and 2) [%] | EC50 [1, 7] [nM] | RNA interference against FVII [2] | stability in mouse serum [3] | stability in human serum [4]
1 | 3: "HBV RNAi agents numbered 1 to 10"; "The RNAi agents used are listed in Table 8E" (18-mer format) (sense CCAUACUGCGGAACUCCUA; antisense UAGGAGUUCCGCAGUAUGG; chemistry not given here) [Number 3] | 49.8 | 50.2 | 0.016 | 38.7 | 61.3 | 0.111 | 44.25 | 0.06 |  |  | 
2 | 4: "HBV RNAi agents numbered 1 to 10"; "The RNAi agents used are listed in Table 8E" (18-mer format) (sense GAGGCUGUAGGCAUAAAUU; antisense AAUUUAUGCCUACAGCCUC; chemistry not given here) [Number 4] | 43.3 | 56.7 | 0.056 | 48.6 | 51.4 | 0.017 | 45.95 | 0.04 |  |  | 
3 | 5: "One sequence used was designated siHBV_1599_18mer_CAM, and corresponds to Number 5 in Table 8E" (sense CCGUGUGCACUUCGCUUCA; antisense UGAAGCGAAGUGCACACGG; chemistry not given here) | 41.3 | 58.7 | 0.013 | 37.8 | 62.2 | 0.127 | 39.55 | 0.07 |  |  | 
4 | 6: "HBV RNAi agents numbered 1 to 10"; "The RNAi agents used are listed in Table 8E" (18-mer format) (sense GGCUGUAGGCAUAAAUUGG; antisense CCAAUUUAUGCCUACAGCC; chemistry not given here) [Number 6] | 37.3 | 62.7 | 0.13 | 39 | 61 | 0.008 | 38.15 | 0.07 |  |  | 
5 | 7: "HBV RNAi agents numbered 1 to 10"; "The RNAi agents used are listed in Table 8E" (18-mer format) (sense GCUGUAGGCAUAAAUUGGU; antisense ACCAAUUUAUGCCUACAGC; chemistry not given here) [Number 7] | 41.5 | 58.5 | 0.409 | 40.3 | 59.7 | 0.038 | 40.9 | 0.22 |  |  | 
6 | 8: "HBV RNAi agents numbered 1 to 10"; "The RNAi agents used are listed in Table 8E" (18-mer format) (sense CAGCAAUGUCAACGACCGA; antisense UCGGUCGUUGACAUUGCUG; chemistry not given here) [Number 8] | 37.5 | 62.5 | 0.177 | 57.8 | 42.2 | 0.025 | 47.65 | 0.1 |  |  | 
7 | 9: "HBV RNAi agents numbered 1 to 10"; "The RNAi agents used are listed in Table 8E" (18-mer format) (sense GGAGGCUGUAGGCAUAAAU; antisense AUUUAUGCCUACAGCCUCC; chemistry not given here) [Number 9] | 48.8 | 51.2 | 0.67 | 50 | 50 | 0.131 | 49.4 | 0.4 |  |  | 
8 | 10: "HBV RNAi agents numbered 1 to 10"; "The RNAi agents used are listed in Table 8E" (18-mer format) (sense GAGAUUAGGUUAAAGGUCU; antisense AGACCUUUAACCUAAUCUC; chemistry not given here) [Number 10] | 57.3 | 42.7 | 0.437 | 50.9 | 49.1 | 0.066 | 54.1 | 0.25 |  |  | 
9 | 11: "An 18-mer ... with the sequences of Number 11E in Table 10"; "an additional HBV RNAi agent, HBV 279" (sense GGUUCUUCUGGAUUAUCAA; antisense UUGAUAAUCCAGAAGAACC; chemistry not given here) | 65.39 | 34.61 | 0.105 | 54 | 46 | 0.039 | 59.695 | 0.07 |  |  | 
10 | 12: "Twelve of the best HBV RNAi agents identified are listed below, in various formats, in Tables 8A-8E, 9 and 10" (sense GGACUUCUCUCAAUUUUCU; antisense AGAAAAUUGAGAGAAGUCC; chemistry not given here) [Number 12] | 36.89 | 63.11 |  |  |  | 0.093 | 36.89 | 0.093 |  |  | 
11 | C1C2CC3CC1CC(C2)C3 [Adamantane] |  |  |  |  |  |  |  |  | allow the RNAi agent to perform RNA interference |  | 
12 | c1ccc(-c2ccccc2)cc1 [Biphenyl] |  |  |  |  |  |  |  |  | allow the RNAi agent to perform RNA interference | increased stability | increased stability
13 | OCCOCCOCCO [Triethylene glycol] |  |  |  |  |  |  |  |  | allow the RNAi agent to perform RNA interference |  | 
14 | OCCOCCOCCO [glycol, triethylene glycol] |  |  |  |  |  |  |  |  |  | increased stability | increased stability
15 | C[C@H](CCC(=O)O)[C@H]1CC[C@H]2[C@@H]3CC[C@@H]4C[C@H](O)CC[C@]4(C)[C@H]3CC[C@]12C [lithochol, lithocholic acid] |  |  |  |  |  |  |  |  |  | increased stability | less stable

From US10519446B2, “Organic compounds to treat hepatitis B virus” (priority 2013, dated 2019)
